The values below come from patent US5747538A, “Use of ginsenoside R0 or a plant extract containing same to promote collagen synthesis” (priority 1994, dated 1998).

Where two headings read alike, the source gives them in different places.

One assay relates to collagen I. Nature of the assay: ELISA measurement of collagen I synthesis (collagen I secreted into the medium) in fibroblast culture, 48 h. Type of assay: cell-based, human. The settings on record: for ng collagen I/10^4 cells/48 h: mean±SD, control 2004 ± 132; for ng coll. I/10,000 HF/48 h: control (Asc. 25 μM + DMSO 0.1%) 2466 ± 289. As for the experimental part: An ELISA method is used to measure collagen I synthesis, with and without treatment, on a culture of fibroblasts originating from a face lift performed on a person.
a.1) Fibroblast cultures:
The fibroblasts are cultivated by the explant method up to the point of confluence, at 37° C., in a medium consisting of a mixture of E199-C medium and 10% fetal calf serum, in a humidity-saturated atmosphere containing 5% of CO2.
Then, after detachment with an isotonic solution containing 0.1% of trypsin and 0.02% of EDTA, buffered to pH 7.2, the cells are inoculated into 96-well microplates (FALCON) at a rate of 10^4 cells per well in an E199-C medium containing 2% of serum.
After 24 h this medium is replaced, for 48 h of incubation, with the same medium without serum and containing 25 μM sodium ascorbate (incubation medium), with or without the test products. The products, solubilized in DMSO, are added to the culture medium at different concentrations.
a.2) Assay of collagen I:
The amount of collagen I secreted into the medium after 48 h of incubation with or without the products was determined by means of an ELISA (Enzyme-Linked Immuno Sorbent Assay) test.
The incubation medium is collected and transferred to the wells of a microtiter plate (Nunc Immunoplate) containing protease inhibitors. Incubation for 24 h at 4° C. allows the collagen to adhere to the plastic. The plates are then rinsed with PBS (Phosphate Buffered Saline).
After 24 h of incubation at 4° C. with serum albumin to prevent non-specific antibody-plastic binding, anti-human collagen I rabbit antibodies (Institut Pasteur, Lyon, France) are added over 1.5 h at 22° C. After rinsing with PBS, the bound antibodies are disclosed with anti-rabbit IgG goat antibodies (INTERCHIM, Montlugon, France) conjugated with an alkaline phosphatase, which, in the presence of paranitrophenyl phosphate, will produce a paranitrophenol absorbing at 405 nm.
The optical densities obtained are converted to nanograms of collagen using a calibration curve established under the same experimental conditions with purified human collagen I (Institut Jacques Boy, France).
a.3) Statistical interpretation:
The amounts of collagen (mean±standard deviation) secreted by the treated and untreated cells are compared by means of a Student t test. The significance level is taken as 0.05.
b.1) The protocol described above is applied in order to study the effect of the concentration of ginsenoside R0 on the stimulation of collagen I synthesis.
Table 1 gives the results obtained with compositions respectively containing 0, 1, 2.5 and 10 μg of ginsenoside R0 per ml.

The test system of another assay is collagen III. Nature of the assay: ELISA measurement of collagen III synthesis in fibroblast culture, 72 h. Type of assay: cell-based. As to conditions: Homo sapiens, read-out: stimulation of synthesis of collagen III. As for the experimental part:
The protocol is the same as that described with collagen I except that the ELISA is directed against collagen III (human) and the culture treatment time is 72 h instead of the 48 h with collagen I.

With `CC1(C)CC[C@]2(C(=O)O[C@@H]3O[C@H](CO)[C@@H](O)[C@H](O)[C@H]3O)CC[C@]3(C)C(=CC[C@@H]4[C@@]5(C)CC[C@H](O[C@@H]6O[C@H](C(=O)O)[C@@H](O)[C@H](O)[C@H]6O[C@@H]6O[C@H](CO)[C@@H](O)[C@H](O)[C@H]6O)C(C)(C)[C@@H]5CC[C@]43C)[C@@H]2C1` [ginsenoside R0], the activation at 1 µg/mL is 8% in the assay with collagen I (Homo sapiens, Fibroblast, 48 h, Table 1, 1 μg/ml, S: significant at the 0.05 level, read-out: Stimulation of synthesis (collagen I)) and 1% in the assay on collagen I (Homo sapiens, Fibroblast, 48 h, Table 2, 1 μg/ml, Example 1 S (p = 0.021), Example 2 S (p = 0.0006), ginsenoside R0 NS, read-out: % stimulation/control (collagen I)). Further, the activation at 2.5 µg/mL with collagen I (Homo sapiens, Fibroblast, 48 h, Table 1, 2.5 μg/ml, S: significant at the 0.05 level, read-out: Stimulation of synthesis (collagen I)) came out at 29%; in the assay on collagen III (2.5 μg/ml) it was 33%. Further, the activation at 10 µg/mL with collagen I (Homo sapiens, Fibroblast, 48 h, Table 1, 10 μg/ml, S: significant at the 0.05 level, read-out: Stimulation of synthesis (collagen I)) stood at 44%; with collagen I (Homo sapiens, Fibroblast, 48 h, Table 2, 10 μg/ml, Example 1 S (p = 0.003), Example 2 S (p = 0.0006), ginsenoside R0 S (p = 0.002), read-out: % stimulation/control (collagen I)), 66%; in the assay with collagen III (10 μg/ml), 81%. For the same compound, the activation at 1.5 µg/mL with collagen I (Homo sapiens, Fibroblast, 48 h, Table 2, 1.5 μg/ml, S (p = 0.024), read-out: % stimulation/control (collagen I)) is 43%. Further, the “ng collagen I/10^4 cells/48 h” value with collagen I (Table 1, 1 μg/ml) is recorded as 2172 ± 88 ng collagen I/10^4 cells/48 h; in the assay with collagen I (Table 1, 2.5 μg/ml) it was 2599 ± 163 ng collagen I/10^4 cells/48 h; in the assay with collagen I (Table 1, 10 μg/ml), 2889 ± 74 ng collagen I/10^4 cells/48 h. Besides, the “ng coll. I/10,000 HF/48 h” value with collagen I (Table 2, 1 μg/ml) is recorded as 2482 ± 276 ng coll. I/10,000 HF/48 h; in the assay with collagen I (Table 2, 1.5 μg/ml) it was 3529 ± 516 ng coll. I/10,000 HF/48 h; in the assay with collagen I (Table 2, 10 μg/ml) it was 4099 ± 480 ng coll. I/10,000 HF/48 h.
